The values that follow come from patent US7851006B2, “Taste potentiator compositions and beverages containing same” (Cadbury Adams USA LLC, priority 2005, dated 2010).

SMILES strings stand for the structures.

For assay [1], the system named is sweetness perception of sweeteners. To be noted: cited from earlier work.
In assay [2] the test system is perceived sweetness of pH 3.2 buffered sucrose solution (expert panel members). Description: Sucrose Equivalent Value (SEV): expert panel matches test solution to stock sucrose solutions. It is filed as in vivo. To be noted: for effect on sweetness of the sucrose solution (dose response curve): 0 to 1000 ppm in pH 3.2 buffered 5% sucrose solution; for sweetness enhancement of sucrose solutions by different forms of 2,4-DHB: 500 ppm in pH 3.2 buffered 0%, 3%, 5%, 7% and 9% sucrose; for SEV (%): 500 ppm potentiator in pH 3.2 buffered solution containing 5% sucrose. The protocol: (§1) One method of measuring the perceived sweetness of a solution is to match it with a stock sucrose solution of known concentration. In the present experiments, the compound of interest is added at a predetermined concentration to a pH 3.2 buffered solution containing 5% sucrose. A number of expert panel members then taste the solution and compare it to a battery of stock sucrose solutions ranging from 3% to 15% at increments of 1%. Each panel member decides which sucrose solution is equisweet with the solution containing the compound of interest. The mean value is then reported as the SEV. Results are reported to 1 decimal place.
In accordance with this methodology, 3-HB was added to a pH 3.2 buffered solution containing 5% sucrose to produce solutions containing from 0 to 1000 ppm 3-HB in 100 ppm increments. […] From FIG. 1 it is apparent that as the dosage of 3-HB increases so does the sweetness of the resultant solution. However the effect is non-linear with each incremental addition having a diminishing effect. The maximum sweetness attainable would appear to be about 7.9% SEV (based on a 5% sucrose solution).
The same methodology as described in Example 1 was repeated with 2,4-DHB in place of 3-HB, to produce the dose response curve for 2,4-DHB (FIG. 2). […] The maximum attainable sweetness would appear to be about 6.7% SEV (based on a 5% sucrose solution).
500 ppm of a sweetener potentiator was added to a pH 3.2 buffered solution containing 5% sucrose and the SEV of the resultant solution determined.
500 ppm of the sweetener potentiator then was added to a 5% sucrose solution containing 500 ppm 3-HB to produce a series of solutions. […] The use of 500 ppm of 3-HB alone results in an SEV of 6.9% whereas in all cases but two (2,4-DHB and 3,4-DHB) the addition of a second sweetener potentiator results in a little change or even a decrease in SEV. This is highly surprising considering that all of the potentiators are shown to have SEVs greater than 5%.
The methodology was repeated to produce a series of solutions containing 500 ppm 2,4-DHB and 500 ppm of a second sweetener potentiator.
500 ppm of 3-HB, 500 ppm of 2,4-DHB and 500 ppm of 3,4-dihydroxybenzoic acid (3,4-DHB) were added to a pH 3.2 buffered solution containing 5% sucrose and the SEV determined. The results are shown in FIG. 7 together with other combinations of 3-HB, 2,4-DHB and 3,4-DHB for comparison. The solution containing the combination of 3-HB and 2,4-DHB (hatched) has a much higher SEV (8.7%) than the combination of either 3,4-DHB and 3-HB (7.6%) or the combination of 3,4-DHB and 2,4-DHB (6.8%). The three-way combination of the embodiment (hatched) is better still with an SEV of 9.8%.
pH 3.2 buffered solutions were prepared containing 0%, 3%, 5%, 7% and 9% sucrose. 500 ppm of 2,4-DHB acid, 500 ppm of the sodium salt of 2,4-DHB and 500 ppm of the potassium salt of 2,4-DHB were added individually to each of the sucrose solutions. The SEV for each of the solutions was then determined.
500 ppm of 3-aminobenzoic acid and 500 ppm of 4-aminobenzoic acid were individually added to separate pH 3.2 buffered solutions containing 5% sucrose and the SEVs of the resultant solutions were determined. The SEV of 3-aminobenzoic acid was about 7%, i.e., increased the sweetness intensity of 5% sucrose to about 7%. The SEV of 4-aminobenzoic acid was about 5.5-6%, i.e., increased the sweetness intensity of 5% sucrose to about 5.5-6%.

Assay [3] deals with perceived sweetness of non-sucrose sweetener solutions (SEV about 5%). Description: SEV of non-sucrose sweetener solutions after addition of potentiators. In kind it is in vivo. Particulars: 500 ppm 3-HB alone versus with 500 ppm 2,4-DHB, pH 3.2. The protocol:
as §1
The SEV of each sweetener solution was then evaluated after the addition 500 ppm of 3-HB, the addition of 500 ppm of 2,4-DHB and the addition of both 500 ppm 3-HB and 2,4-DHB.

As for `O=C(O)c1ccc(O)cc1O` [2,4-dihydroxybenzoic acid (2,4-DHB), 2,4-dihydroxybenzoic acid], in assay [1] (FIGS. 1 and 2, Tables 1 and 2 of US 6,461,658), the “effect on sweetness intensity of sucralose and aspartame” value is “slightly inhibitory effect”. The listed taste character result in assay [1] (US 5,232,735) is given as “substantially tasteless sweetness inhibitor”. Moreover, in assay [1] (US 6,461,658), the “effect on sweetness delivery profile of sucralose” value is given as “significantly reducing the length of time during which sucralose sweetness is perceived”. Besides, the “effect on sweetness delivery profile of aspartame” value in assay [1] (US 6,461,658, compared with effect on sucralose) is given as “The same effect is not observed for aspartame”. For the same molecule, in assay [1] (WO99/15032), the “effect on sweetness of aspartame” value is on record as “increase sweetness synergistically”. The “effect with alitame, Ace-K, saccharin or a mixture of aspartame and Ace-K” value in assay [1] (WO99/15032, compared with effect on aspartame) is listed as “same effect is not observed”. In addition, in assay [1] (addition of 0.2% 2,4-DHB, Canadian Patent No. 1208966), the “effect on sweetness of 5% sucrose solution” value is listed as “increase in sweetness”. Moreover, in assay [2], the “effect on sweetness of the sucrose solution (dose response curve)” value is on record as “enhances the sweetness of the sucrose solution” and the “sweetness enhancement of sucrose solutions by different forms of 2,4-DHB” value is reported as “enhances the sweetness of the sucrose solution in every case”.

On to `O=C(O)c1cc(O)c(O)c(O)c1` [3,4,5-tryhydroxybenzoic acid (3,4,5-THB), 3,4,5-tryhydroxybenzoic acid], for which the “SEV (%)” value in assay [2] came to 5.1%.

As for `O=C(O)c1ccc(O)c(O)c1` [3,4-dihydroxybenzoic acid (3,4-DHB), 3,4-dihydroxybenzoic acid], the “SEV (%)” value in assay [2] is 6.4%.

Regarding `O=C(O)c1cccc(O)c1` [3-hydroxybenzoic acid (3-HB), 3-hydroxybenzoic acid], the “effect on sweetness of sucrose, aspartame and saccharin” value in assay [1] (pH 2.0 to 5.5, EP 0132444 and US 4,627,987) is reported as “enhance sweetness”. Besides, the “sweetness enhancement of saccharin solution, alone versus combination” value in assay [3] was “enhances the sweetness to a greater degree alone than in combination with 2,4-DHB”. Also, the “effect on sweetness of the sucrose solution (dose response curve)” value in assay [2] was “enhances the sweetness of the sucrose solution”. For the same molecule, the “SEV of solution containing 500 ppm 2,4-DHB and 500 ppm of a second sweetener potentiator” value in assay [2] (second potentiator 500 ppm added to 500 ppm 2,4-DHB, 5% sucrose) is given as “significant positive effect”.

As for `O=C([O-])c1ccc(O)cc1O.[K+]` [potassium salt of 2,4-DHB], in assay [2], the “sweetness enhancement of sucrose solutions by different forms of 2,4-DHB” value was “enhances the sweetness of the sucrose solution in every case”.

`O=C([O-])c1ccc(O)cc1O.[Na+]` [sodium salt of 2,4-DHB]: the “sweetness enhancement of sucrose solutions by different forms of 2,4-DHB” value in assay [2] is listed as “enhances the sweetness of the sucrose solution in every case”.
